This note sets out measurements from patent publication EP0272446B1, “Novel antiviral agents” (SRI INTERNATIONAL, priority 1983, dated 1984).

Molecules are shown by their SMILES. Converted amounts (≈) assume the structure as drawn. Like-named read-outs stand apart in the source and are kept apart here. Bounds are passed on as bounds.

Series [1] has as its system thymidine kinase positive herpes virus. Description: In vivo test in guinea pigs inoculated with herpes virus, lesions measured. As to conditions: for Satellite lesions: five days later; for TK+ virus, average number of lesions: measured five days later. On the procedure: The compound of Example II was tested in vivo in guinea pigs as an agent against thymidine kinase positive herpes virus. The animals were innoculated with the virus. Eighteen hours later the material of Example II (0.4% solution in water or 1-2% solution), a 5% solution of acyclovir or a 1.4% solution of poly(vinylalcohol) was administered and five days later blister diameters at the point of innoculation were measured. Satellite lesions were measured as well.

Series [2] deals with Thymidine Kinase-Positive Type 1 Herpes Virus. Description: In vitro antiviral test, inhibition of viral cytopathic effect (CPE) in MA-104 cell monolayers. The format is cell-based, Strain McCrae of type 1 herpes. On the procedure: The compounds of Example I and II were evaluated in vitro as antiviral agents against herpes virus.
The virus strain employed was Strain McCrae of type 1 herpes (thymidine kinase positive virus) prepared and titered in MA-104 cells and frozen at -90°C until use.
(§1) Continuous passaged monkey kidney (MA-104) cells were used, with growth medium consisting of Minimum Essential Medium (MEM) supplemented with 0.1% NaHCO₃ and 9% fetal calf serum. Test medium consisted of MEM supplemented with 2% fetal bovine serum, 0.18% NaHCO₃ and […] gentamicin.
The last compounds were added to test medium at a concentration of 2000 µg/ml for use as a positive control.
(§2) To a 96 well microtiter plate containing an established 24 hour monolayer of cells from which the medium has been decanted was added 0.1 ml of varying (one-half log₁₀) concentrations of test compound, which incubated on the cell 15 minutes, after which 0.1 ml of virus in a concentration of 320 cell culture 50% infectious doses (CCID50)/0.1 ml was added. The plate was covered with plastic wrap and incubated at 37°C. Included with the test were toxicity controls (each concentration of compound + test medium in place of […]) and cell controls (test medium in place of compound and virus). The cells were examined microscopically after 72 hours for evidence of cytotoxicity and for viral cytopathic effect (CPE). Vidarabine was run on the same plate in parallel.
Antiviral activity was determined by observation of inhibition of viral CPE. This activity was expressed by minimum inhibitory concentration (MIC), Defined as that dose range of compound causing 50% CPE inhibition. A Virus Rating (VR) was also determined, which is a numerical expression of antiviral activity, weighted to take into account any cytotoxicity observed. Generally, a VR of 0.1 - 0.4 is usually indicative of slight antiviral effect, 0.5 - 0.9 indicates moderate antiviral effedt, and >1.0 implies strong antiviral activity.
In general terms: Damage to the host cells serves as the signal in cytopathic effect assays.

Series [3] in a line: Cytotoxicity (toxicity controls) in the antiviral test, maximum tolerated dose. The format is cell-based. The settings on record: monkey, ma-104 cells, Table B. How it is done: as §1, §2
Another series has as its system cytomegalo virus. Description: In vitro antiviral test (CPE inhibition method) against cytomegalo virus. The format is cell-based. How it is done:
as §2
Antiviral activity was determined by observation of inhibition of viral CPE. This activity was expressed by minimum inhibitory concentration (MIC), Defined as that dose range of compound causing 50% CPE inhibition. A Virus Rating (VR) was also determined, which is a numerical expression of antiviral activity, weighted to take into account any cytotoxicity observed. […]
The compound of Example II was further evaluated by the above-described in vitro test method against cytomegalo virus. […]

The mark [4] stands for this setting: 5% solution given eighteen hours after inoculation.
Setting [5] is: Table A, 0.1 - 0.4 = slight, 0.5 - 0.9 = moderate, ≥ 1.0 = strong activity.
Setting [6] is: MA104, read-out: MIC (Minimum inhibitory concentration).
The mark [7] stands for this setting: MA104, read-out: Test1 CPE Inhib. (%).
Where [8] appears, read: MA104, read-out: Test2 CPE Inhib. %.
[9] abbreviates: Test 1, read-out: MTD (Maximum tolerated dose).
Setting [10] is: Test 2, read-out: MTD (Maximum tolerated dose).
The mark [11] stands for this setting: 0.4% solution in water given eighteen hours after inoculation.
Setting [12] is: 1-2% saturated solution given eighteen hours after inoculation.
Where [13] appears, read: MA104, 72 h, read-out: CPE Inhib. (%).

Take `Nc1nc2c(ncn2COCCO)c(=O)[nH]1` [Acyclovir, acyclovir, reference compound]: in series [1] (setting [4]), the Satellite lesions stood at 4 and the “TK+ virus, average number of lesions” value is listed as 1.0.

Take `Nc1nc2c(ncn2COCCCP(=O)(O)O)c(=O)[nH]1` [Example I, 9(3-phosphono-1-propyloxymethyl)guanine]: in series [2] (MA104, Table A, conc. 1.0 μg/ml, 72 hours, read-out: CPE Inhib. (%)), the inhibition at 1 µg/mL stood at 31%. Also, in series [2] (MA104, Table A, conc. 3.2 μg/ml, 72 hours, read-out: CPE Inhib. (%)), the inhibition at 3.2 µg/mL is 28%. The inhibition at 10 µg/mL in series [2] (MA104, Table A, conc. 10 μg/ml, 72 hours, read-out: CPE Inhib. (%)) was determined as 49%. Moreover, the inhibition at 32 µg/mL in series [2] (MA104, Table A, conc. 32 μg/ml, 72 hours, read-out: CPE Inhib. (%)) worked out at 62%. For the same compound, in series [2] (MA104, Table A, conc. 100 μg/ml, 72 hours, read-out: CPE Inhib. (%)), the inhibition at 100 µg/mL is 79%. The inhibition at 320 µg/mL in series [2] (MA104, Table A, conc. 320 μg/ml, 72 hours, read-out: CPE Inhib. (%)) is 94%. Also, the inhibition at 1000 µg/mL in series [2] (MA104, Table A, conc. 1000 μg/ml, 72 hours, read-out: CPE Inhib. (%)) was found to be 100%. Moreover, the EC50 in series [2] (MA104, Table A, dosage range wherein a 50% CPE inhibition is seen, read-out: MIC (Minimum inhibitory concentration)) amounted to 10 µg/mL (≈ 33 µM). Also, the “VR (Virus rating)” value in series [2] (setting [5]) is 1.4.

In the case of `CCOP(=O)(O)CCCOCn1cnc2c(=O)[nH]c(N)nc21` [Example II, 9(3-ethylphosphono-1-propyloxymethyl)guanine], the EC50 in series [2] (setting [6]) is under 1 µg/mL. In addition, in series [2] (setting [7]), the inhibition at 1.2 µg/mL was 69%, the inhibition at 3.2 µg/mL was 96%, the inhibition at 10 µg/mL came to 38% and the inhibition at 32 µg/mL worked out at 6%. Further, in series [2] (setting [7]), the inhibition at 100 µg/mL stood at 47%, the inhibition at 320 µg/mL was 82% and the inhibition at 1000 µg/mL worked out at 100%. Moreover, in series [2] (setting [8]), the inhibition at 1.2 µg/mL was 48%, the inhibition at 3.2 µg/mL came out at 52%, the inhibition at 10 µg/mL worked out at 48% and the inhibition at 32 µg/mL was found to be 57%. For the same compound, in series [2] (setting [8]), the inhibition at 100 µg/mL amounted to 57%, the inhibition at 320 µg/mL was 67% and the inhibition at 1000 µg/mL stood at 76%. Besides, the “VR (Virus rating)” value in series [2] (Table B, Test 1) is on record as over 2.0. In addition, the “VR (Virus rating)” value in series [2] (Table B, Test 2) is given as over 1.4. The “MIC (Minimum inhibitory concentration)” value in series [2] (Table B, Test 2, dosage range wherein a 50% CPE inhibition is seen) is under 1.0 µg/mL. Besides, the MNTC at 72 h in series [3] (setting [9]) stood at 320 µg/mL. The MNTC at 72 h in series [3] (setting [10]) is over 1000 µg/mL. For the same compound, the VR with cytomegalo virus is listed as 2.1-2.3. In addition, in series [1] (setting [11]), the Satellite lesions is on record as 11 and the “TK+ virus, average number of lesions” value amounted to 2.1. Moreover, in series [1] (setting [12]), the Satellite lesions was found to be 6 and the “TK+ virus, average number of lesions” value is recorded as 0.9.

For the compound `Nc1ncnc2c1ncn2[C@@H]1O[C@H](CO)[C@@H](O)[C@@H]1O` [Vidarabine, reference compound], in series [2] (setting [13]), the inhibition at 1 µg/mL stood at 56%, the inhibition at 3.2 µg/mL was found to be 28%, the inhibition at 10 µg/mL was determined as 69% and the inhibition at 32 µg/mL turned out to be 87%. Further, in series [2] (setting [13]), the inhibition at 100 µg/mL stood at 87%, the inhibition at 320 µg/mL amounted to 100% and the inhibition at 1000 µg/mL stood at 100%. The EC50 in series [2] (setting [6]) came out at 10 µg/mL (≈ 37.4 µM). Also, in series [2] (setting [7]), the inhibition at 3.2 µg/mL was 2%, the inhibition at 10 µg/mL is 60%, the inhibition at 32 µg/mL turned out to be 96% and the inhibition at 100 µg/mL is 96%. In series [2] (setting [7]), the inhibition at 320 µg/mL amounted to 100% and the inhibition at 1000 µg/mL stood at 100%. Further, in series [2] (setting [8]), the inhibition at 3.2 µg/mL was 0%, the inhibition at 10 µg/mL was found to be 39%, the inhibition at 32 µg/mL is 57% and the inhibition at 100 µg/mL amounted to 85%. In series [2] (setting [8]), the inhibition at 320 µg/mL worked out at 100% and the inhibition at 1000 µg/mL was 100%. For the same compound, the “VR (Virus rating)” value in series [2] (setting [5]) stood at 1.3. The “VR (Virus rating)” value in series [2] (Table B, Test 1) came out at 0.8. For the same compound, the “VR (Virus rating)” value in series [2] (Table B, Test 2) is 07. In addition, in series [3] (setting [9]), the MNTC at 72 h was 10 µg/mL. The MNTC at 72 h in series [3] (setting [10]) is 10 µg/mL.
